17 compounds from patent publication US20040121947A1, “Compounds which inhibit beta-secretase activity and methods of use thereof” (Oklahoma Medical Research Foundation, priority 2000, published 2004) can be followed below.

In one assay the target is T1, memapsin 2 (Homo sapiens, UniProt P56817).
T1 construct: pET-11 vector-derived residues 1-15 of promemapsin 2-T1 (N, cleaved yes); made in house; host or cells: E. coli
The assay is described as follows: Inhibition of memapsin 2 proteolytic activity, fluorogenic substrate FS-2. The conditions noted are these: for % Inhibition Mep2: enzyme concentration equals the compound concentration; for % Inh (M1/M2): ratio of % inhibition memapsin 1 / memapsin 2, 1 or less = greater inhibition of memapsin 2; for Vi/Vo: ratio of initial cleavage velocities of FS-2 with/without compound, enzyme and inhibitor concentrations equal (e.g., about 80 nM, 100 nM). The class given is biochemical. In outline: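 Inhibitors tested at about 10 nM to 10 μM in pH 4.0 0.1 M sodium acetate containing 10% (v/v) DMSO, after 20 min preincubation at 37 °C with 80 nM self-activated memapsin 2. Substrate-independent Ki derived from apparent Ki via Km and substrate level.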

The target in a further assay is T2, memapsin 1 (Homo sapiens, UniProt Q9Y5Z0).
T2 construct: pET-11 vector-derived residues 1-14 of promemapsin 1-T1 (N, cleaved yes); made in house; host or cells: E. coli
T2 sequence (Q9Y5Z0 63-466 limits assumed): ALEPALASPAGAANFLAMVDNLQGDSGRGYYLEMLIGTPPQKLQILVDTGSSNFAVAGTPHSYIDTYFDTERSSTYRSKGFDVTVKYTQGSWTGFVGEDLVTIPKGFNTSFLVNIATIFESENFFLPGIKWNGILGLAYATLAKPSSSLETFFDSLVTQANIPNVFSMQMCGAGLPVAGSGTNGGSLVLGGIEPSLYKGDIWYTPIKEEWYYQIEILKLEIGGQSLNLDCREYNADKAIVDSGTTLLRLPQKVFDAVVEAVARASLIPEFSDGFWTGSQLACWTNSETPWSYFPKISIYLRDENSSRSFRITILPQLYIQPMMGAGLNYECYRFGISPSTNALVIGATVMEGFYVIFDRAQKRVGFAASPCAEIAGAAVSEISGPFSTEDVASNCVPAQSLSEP
Kind of assay: Inhibition of memapsin 1 proteolytic activity, fluorogenic substrate FS-2. The format is biochemical. The following applies: for Ki: Table 9, read-out: Ki apparent Mep1; for % Inhibition Mep1: enzyme concentration equals the compound concentration. As to the method:
Vi/Vo depicts the ratio of initial cleavage velocities of the substrate FS-2 (Ermolieff, et al., Biochemistry […]:12450-12456 (2000)) by memapsin 1 or memapsin 2 in the absence (Vo) or presence (Vi) of a compound of the invention. […] The Vi/Vo values depicted in Table 1 were determined at conditions under which the enzyme and inhibitor concentrations were equal (e.g., about 80 nM, 100 nM).
The relationship of Ki (independent of substrate concentration) to Kiapp is a function of substrate concentration in the assay and the Km for cleavage of the substrate by either memapsin 1 or memapsin 2 by the relationship:
An aliquot of the inhibitor of known concentration in DMSO was diluted into 1.8 ml 0.1 M NaOAc, pH 4.0. DMSO and added to a final concentration of 10% (v/v), and memapsin 2 (final concentration of 80 nM), followed by a 20 minute equilibration at 37° C. Compounds were evaluated for the ability to inhibit memapsin 1 and memapsin 2 at concentrations between about 10 nM and about 10 μm of inhibitor.
The relationship of Ki (independent of substrate concentration) to Kiapp is a function of substrate concentration in the assay and the Km for cleavage of the substrate by either memapsin 1 or memapsin 2 by the relationship: […]

[1] abbreviates: Table 9, read-out: Ki apparent Mep2.
[2] abbreviates: memapsin 2, apparent Ki in presence of substrate FS-2, read-out: Ki app.
[3] abbreviates: memapsin 2, independent of substrate, converted from Ki apparent, read-out: Ki.

Read-outs that look alike come from different tables or passages of the source.

T1 sequence (P56817 41-454 limits assumed): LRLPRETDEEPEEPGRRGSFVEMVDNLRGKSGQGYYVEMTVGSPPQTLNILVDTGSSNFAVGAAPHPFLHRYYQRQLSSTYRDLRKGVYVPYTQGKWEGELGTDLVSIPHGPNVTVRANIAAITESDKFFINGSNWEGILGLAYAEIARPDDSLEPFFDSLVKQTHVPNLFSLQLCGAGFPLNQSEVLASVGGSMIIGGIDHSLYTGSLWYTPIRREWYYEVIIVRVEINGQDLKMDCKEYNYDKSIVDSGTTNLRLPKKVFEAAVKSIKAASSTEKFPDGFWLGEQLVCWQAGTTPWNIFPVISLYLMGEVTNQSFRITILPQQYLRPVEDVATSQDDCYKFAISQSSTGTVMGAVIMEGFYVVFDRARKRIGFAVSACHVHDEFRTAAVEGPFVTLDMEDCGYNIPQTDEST

For the compound `CSCC[C@H](NC(=O)[C@@H](NC(=O)OC(C)(C)C)C(C)C)C(=O)N[C@@H](CC(C)C)[C@@H](O)C[C@@H](C)C(=O)N[C@H](C(=O)NCc1ccccc1)C(C)C` [MMI-017], the Ki at memapsin 2 (setting [1]) was 3.9 nM; at memapsin 2 (setting [2]) it was 3.9 nM; at memapsin 2 (setting [3]), 2.4 nM; at memapsin 1, 0.0012 µM.

Turning to `CC(C)C[C@H](NC(=O)[C@H](CS(C)(=O)=O)NC(=O)[C@@H](NC(=O)OC(C)(C)C)C(C)C)[C@@H](O)C[C@@H](C)C(=O)N[C@H](C(=O)NCc1ccccc1)C(C)C` [MMI-026], the Ki was 15.9 nM on memapsin 2 (setting [1]), 16 nM on memapsin 2 (setting [2]), 9.97 nM on memapsin 2 (setting [3]) and 0.0447 µM on memapsin 1.

As to `CC(C)C[C@H](NC(=O)[C@H](CCS(C)(=O)=O)NC(=O)[C@@H](NC(=O)OC(C)(C)C)C(C)C)[C@@H](O)C[C@@H](C)C(=O)N[C@@H](C(=O)NCc1ccccc1)[C@@H](C)O` [MMI-073], at memapsin 2, the “% Inhibition Mep2” value is 52%, the “% Inh (M1/M2)” value is on record as 0.73 and the Vi/Vo was 0.48. Moreover, the “% Inhibition Mep1” value on memapsin 1 is on record as 38%.

Regarding `CSCC[C@H](NC(=O)[C@@H](NC(=O)OC(C)(C)C)C(C)C)C(=O)N[C@@H](CC(C)C)[C@@H](O)C[C@@H](CO)C(=O)N[C@H](C(=O)NCc1ccccc1)C(C)C` [MMI-078], on memapsin 2 (listed as 78), the “% Inhibition Mep2” value worked out at 37% and the “% Inh (M1/M2)” value stood at 0.76. In addition, the Vi/Vo at memapsin 2 came to 0.63. Further, the “% Inhibition Mep1” value at memapsin 1 (listed as 78) was 28%.

`CSCC[C@H](NC(=O)[C@@H](NC(=O)OC(C)(C)C)C(C)C)C(=O)N[C@@H](CC(C)C)[C@@H](O)C[C@@H](C)C(=O)N[C@@H](CC(C)C)C(=O)NCc1ccco1` [MMI-116]: at memapsin 2, the “% Inhibition Mep2” value is recorded as 56%, the “% Inh (M1/M2)” value is 1.52 and the Vi/Vo was 0.29. The Ki at memapsin 2 (setting [2]) was found to be 49 nM. At memapsin 2 (setting [3]), the Ki turned out to be 30.6 nM. Moreover, the “% Inhibition Mep1” value at memapsin 1 is given as 85%.

Take `CSCC[C@H](NC(=O)[C@@H](NC(=O)OC(C)(C)C)C(C)C)C(=O)N[C@@H](CC(C)C)[C@@H](O)C[C@@H](CO)C(=O)N[C@H](C(=O)NCc1ccccc1)C(C)C` [MMI-132]: on memapsin 2, the “% Inhibition Mep2” value is 47%, the “% Inh (M1/M2)” value amounted to 1.30 and the Vi/Vo was found to be 0.46. For the same compound, on memapsin 2 (setting [2]), the Ki amounted to 107 nM. Besides, the Ki on memapsin 2 (setting [3]) was found to be 67.1 nM. The “% Inhibition Mep1” value at memapsin 1 is recorded as 61%.

For `CSCC[C@H](NC(=O)[C@H](CC(C)C)NC(=O)OC(C)(C)C)C(=O)N[C@@H](CC(C)C)[C@@H](O)C[C@@H](C)C(=O)N[C@H](C(=O)NCC(C)C)C(C)C` [MMI-134], at memapsin 2, the “% Inhibition Mep2” value is on record as 81% and the “% Inh (M1/M2)” value came out at 1.21. Besides, the Ki at memapsin 2 (setting [2]) stood at 3.48 nM. Further, on memapsin 2 (setting [3]), the Ki was found to be 2.18 nM. Moreover, the “% Inhibition Mep1” value at memapsin 1 came to 98%.

`Cc1cc(C)n(COC(=O)N[C@@H](CCS(C)(=O)=O)C(=O)N[C@@H](CC(C)C)[C@@H](O)C[C@@H](C)C(=O)N[C@H](C(=O)NCc2ccccc2)C(C)C)n1` [MMI-139]: on memapsin 2, the “% Inhibition Mep2” value stood at 50%, the “% Inh (M1/M2)” value was 0 and the Vi/Vo is 0.5. Moreover, at memapsin 1, the “% Inhibition Mep1” value stood at 0%.

For `CSCC[C@H](NC(=O)OCn1nc(C)cc1C)C(=O)N[C@@H](CC(C)C)[C@@H](O)C[C@@H](C)C(=O)N[C@H](C(=O)NCC(C)C)C(C)C` [MMI-156], on memapsin 2, the “% Inhibition Mep2” value was 68%, the “% Inh (M1/M2)” value came out at 0.47 and the Vi/Vo is given as 0.32. On memapsin 2 (setting [2]), the Ki turned out to be 3.03 nM. The Ki on memapsin 2 (setting [3]) worked out at 1.89 nM. Moreover, at memapsin 1, the “% Inhibition Mep1” value was 32%.

Consider `CCCCNC(=O)[C@@H](NC(=O)[C@H](C)C[C@H](O)[C@H](CC(C)C)NC(=O)[C@H](CCSC)NC(=O)OCn1nc(C)cc1C)C(C)C` [MMI-167], for which, on memapsin 2, the “% Inhibition Mep2” value is 44%, the “% Inh (M1/M2)” value was 0.18 and the Vi/Vo is recorded as 0.56. Further, the Ki on memapsin 2 (setting [2]) is 36.6 nM. In addition, the Ki at memapsin 2 (setting [3]) turned out to be 22.8 nM. Besides, on memapsin 1, the “% Inhibition Mep1” value turned out to be 8%.

With `CSCC[C@H](NC(=O)OCn1nc(C)cc1C)C(=O)N[C@@H](CC(C)C)[C@@H](O)C[C@@H](C)C(=O)N[C@@H](CC(C)C)C(=O)NC(CF)CF` [MMI-171], at memapsin 2, the “% Inhibition Mep2” value came out at 45%, the “% Inh (M1/M2)” value is reported as 0.18 and the Vi/Vo is given as 0.55. The Ki at memapsin 2 (setting [2]) turned out to be 63.9 nM. Further, the Ki on memapsin 2 (setting [3]) amounted to 40 nM. In addition, the “% Inhibition Mep1” value on memapsin 1 is given as 8%.

`CSCC[C@H](NC(=O)OCCn1nc(C)cc1C)C(=O)N[C@@H](CC(C)C)[C@@H](O)C[C@@H](C)C(=O)N[C@@H](CC(C)C)C(=O)NCC(C)C` [MMI-176]: at memapsin 2, the “% Inhibition Mep2” value is recorded as 47%, the “% Inh (M1/M2)” value was 0 and the Vi/Vo came out at 1. Besides, at memapsin 2 (setting [2]), the Ki was 111 nM. Also, on memapsin 2 (setting [3]), the Ki worked out at 69.1 nM. Also, the “% Inhibition Mep1” value at memapsin 1 was found to be 0%.

As for `CSCC[C@H](NC(=O)OCCn1nc(C(C)C)cc1C(C)C)C(=O)N[C@@H](CC(C)C)[C@@H](O)C[C@@H](C)C(=O)N[C@H](C(=O)NCC(C)C)C(C)C` [MMI-180], at memapsin 2, the “% Inhibition Mep2” value was found to be 26%, the “% Inh (M1/M2)” value is 0 and the Vi/Vo worked out at 0.74. Moreover, the “% Inhibition Mep1” value at memapsin 1 worked out at 0%.

In the case of `CSCC[C@H](NC(=O)OCn1nc(C)cc1C)C(=O)N[C@@H](CC(C)C)[C@@H](O)C[C@]1(C)CCN([C@@H](CC(C)C)C(=O)NCC(C)C)C1=O` [MMI-181], on memapsin 2, the “% Inhibition Mep2” value worked out at 47%, the “% Inh (M1/M2)” value came out at 0.19 and the Vi/Vo is reported as 0.53. Further, on memapsin 2 (setting [2]), the Ki stood at 393 nM. Besides, at memapsin 2 (setting [3]), the Ki is 246 nM. Also, the “% Inhibition Mep1” value on memapsin 1 came to 9%.

Regarding `CCCCNC(=O)[C@H](C(C)C)N1CC[C@@](C)(C[C@H](O)[C@H](CC(C)C)NC(=O)[C@H](CCSC)NC(=O)OCn2nc(C)cc2C)C1=O` [MMI-182], the Ki on memapsin 2 (Ki, [I] < 100, memapsin 2, [I] < 100 (nM)) came to 72.7 nM. Also, at memapsin 2, the “% Inhibition Mep2” value amounted to 34%, the “% Inh (M1/M2)” value was 0 and the Vi/Vo is 0.66. At memapsin 2 (setting [2]), the Ki stood at 447 nM. In addition, the Ki at memapsin 2 (setting [3]) worked out at 280 nM. Also, at memapsin 1, the “% Inhibition Mep1” value is reported as 0%.

Regarding `CSCC[C@H](NC(=O)C(C)Cn1nc(C)cc1C)C(=O)N[C@@H](CC(C)C)[C@@H](O)C[C@@H](C)C(=O)N[C@H](C(=O)NCC(C)C)C(C)C` (some centres unmarked) [MMI-196], the Ki at memapsin 2 (setting [1]) came out at 28.8 nM; on memapsin 2 (setting [2]) it was 28.8 nM; at memapsin 2 (setting [3]), 18 nM; at memapsin 1, 0.351 µM.

As to `CSCC[C@H](NC(=O)C(Cn1nc(C)cc1C)C(C)C)C(=O)N[C@@H](CC(C)C)[C@@H](O)C[C@@H](C)C(=O)N[C@H](C(=O)NCC(C)C)C(C)C` (some centres unmarked) [MMI-204], the Ki turned out to be 27.4 nM on memapsin 2 (setting [1]), 27.4 nM at memapsin 2 (setting [2]), 17.1 nM on memapsin 2 (setting [3]) and 1.03 µM on memapsin 1.
